Reference: patent publication US20260216139A1, “METHOD FOR TREATING NEUROLOGICAL DISEASES THROUGH GLIAL PRUNING REGULATION” (Fred Hutchinson Cancer Center, priority 2022, published 2026)

Test system: C. elegans
Assay: Effects of exposure to drugs on glial pruning: number of engulfed AFD neuron fragments in AMsh glia
Type: in vivo
Settings: for suppression of defects, judged by the number of engulfed fragments in glia: pdr-1 single or pdr-1; for number of engulfed fragments of neuron within glia: pdr-1 mutant animals, upon drug exposure
Protocol: C. elegans were cultured as known to one of skill in the art. Bristol N2 strain was used as wild type. For all experiments, animals were raised at 20° C. for at least two generations without starvation, picked as L4 larvae onto fresh plate, and assayed 1 day later unless otherwise noted. For analysis of glial engulfment, animals were crossed to the strain dnals13, an integrated transgene bearing gcy-23: GFP recombineered fosmid outcrossed to Bristol N2 four times. To control environmental variations, worms were raised from egg-lay in a humidity and temperature-controlled environment until imaging. Worms were staged at the L4 stage using vulval anatomy. Day 1 adult animals were staged at the L4 stage and then grown for approximately 24 more hours (unless otherwise stated) in the controlled environment. Worms were imaged and glial engulfment was analyzed as described in the methods below.
Worms were immobilized with 40 mM sodium azide. Images were collected on a Deltavision® Elite RoHS wide-field deconvolution system with Ultimate Focus® (GE), a PlanApo 60×/1.42 NA or OLY 100×/1.40 NA oil-immersion objective, and a DV Elite CMOS Camera. Images of the AFD puncta in the region of the AMsh were taken at 100× using FITC with 100% transmission and 0.0405 ms exposure with a reference image taken at 5% POL in the middle of the sample. For worms expressing an extrachromosomal array tagged with mCherry, images were also taken using an A594 filter with 0.02 ms exposure to ensure expression of the array in the cell of interest. Images were then deconvolved and cropped to 1024×1024 in the area of interest. Next, images were processed using FIJI®. All images were converted to 8-bit and brightness and contrast were set with a minimum of 0 and a maximum of 50. Next, a rectangle is drawn around the region of the AMsh adjacent to, but not including, the AFD cell body and excluding any area along the AFD process. Next, the image is cropped to this region, and the tool “3D Objects Counter” is run with the following settings: threshold=35; size min.=5 max.=7225848; exclude objects side. This number of puncta is then verified by eye and recorded.
Data and statistics were either graphed and analyzed using Prism9 or by using R. Statistical analysis in R was conducted using the open-source data visualization package ggplot2. Data is represented in a boxplot with each point representing the number of puncta engulfed within the cell body of one AMsh glia in a single worm. Dots represent the biological replicate in which the individual worm was imaged unless otherwise specified to represent genotype.
4 mL standard C. elegans nematode growth medium (NGM) was aliquoted into 35 mm Petri dishes and stored at 4 degrees Celsius. Plates were warmed to room temperature and seeded with 100 μL of OP50 and dried overnight. Plates were then spotted with 100 μL of diluted SP600125 (in DMSO), Apocynin (in DMSO), or EHop-016 (in DMSO) for a final concentration of 0.5% or 1% DMSO (as labeled) and a final concentration of the treatment drug of 50 μM (unless otherwise specified). Spot treatment was allowed to dry before L1 staged C. elegans were transferred onto the plate. Worms were then imaged approximately 2 days later. Worms were staged at this time by vulval anatomy, body size, and the presence or absence of eggs. […] At this time, worms were imaged, and glial engulfment levels were analyzed.

Row | Compound | suppression of defects, judged by the number of engulfed fragments in glia (pink-1 double mutant animals) | number of engulfed fragments of neuron within glia | also measured
1 | COc1cc(C(C)=O)ccc1O (racemic) [Apocynin, acetovanillone] | suppress | – | –
2 | CCn1c2ccccc2c2cc(Nc3ccnc(NCCCN4CCOCC4)n3)ccc21 (racemic) [EHOP-016] | did not suppress | – | pruning (pdr-1, pink-1 double mutant animals, 10 μM): increased; pdr-1 defect (pruning) (pdr-1 lesion animals (FIG. 21C right), 10 μM): increased; pruning (wild type animals, 10 μM): increase
3 | CC(C)C[C@@H](C=O)NC(=O)[C@H](CC(C)C)NC(=O)[C@H](CC(C)C)NC(=O)OCc1ccccc1 (racemic) [MG-132] | – | reduction | –
4 | O=[N+]([O-])c1ccc(O)c([N+](=O)[O-])c1 [DNP] | – | no change | –
5 | CO[C@H]1C[C@@H]2CC[C@@H](C)[C@@](O)(O2)C(=O)C(=O)N2CCCC[C@H]2C(=O)O[C@H]([C@H](C)C[C@@H]2CC[C@@H](O)[C@H](OC)C2)CC(=O)[C@H](C)/C=C(\C)[C@@H](O)[C@@H](OC)C(=O)[C@H](C)C[C@H](C)/C=C/C=C/C=C/1C [rapamycin] | – | no change | –
